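Where inhibition never reached the appropriate level, the endpoint shown equals the highest concentration tested. Otherwise, values were interpolated linearly from a five-concentration, 48-hour dose response in 96-well plates. Abbreviation: GI50, concentration required for 50% inhibition of growth.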 Calls of active or inactive are those of the source. No stated cut-off is given here; in the data, active = GI50 up to about 1.1 µM and inactive = higher.
How the values were obtained:
Assay in all cases: NCI anticancer screen, dose series, 48 h
EKVX = tested on: EKVX
ACHN = tested on: ACHN
A498 = tested on: A498
SNB-75 = tested on: SNB-75
UO-31 = tested on: UO-31
HCT-15 = tested on: HCT-15
NCI-H226 = tested on: NCI-H226
SF-539 = tested on: SF-539
COLO 205 = tested on: COLO 205
SK-MEL-2 = tested on: SK-MEL-2
MCF7 = tested on: MCF7
IGROV-1 = tested on: IGROV-1
SNB-19 = tested on: SNB-19
SF-295 = tested on: SF-295
BT-549 = tested on: BT-549
LOX IMVI = tested on: LOX IMVI
U-251 = tested on: U-251
SK-OV-3 = tested on: SK-OV-3
MDA-MB-435 = tested on: MDA-MB-435
RXF 393 = tested on: RXF 393
MDA-N = tested on: MDA-N
UACC-62 = tested on: UACC-62
HOP-62 = tested on: HOP-62
NCI-H460 = tested on: NCI-H460
Malme-3M = tested on: Malme-3M
OVCAR-4 = tested on: OVCAR-4
SF-268 = tested on: SF-268
SK-MEL-28 = tested on: SK-MEL-28
T47D = tested on: T47D
UACC-257 = tested on: UACC-257
CAKI-1 = tested on: CAKI-1
OVCAR-8 = tested on: OVCAR-8
786-0 = tested on: 786-0
HT-29 = tested on: HT-29
HCT-116 = tested on: HCT-116
Hs-578T = tested on: Hs-578T
NCI-H23 = tested on: NCI-H23
HL-60 = tested on: HL-60
PC-3 = tested on: PC-3
NCI/ADR-RES = tested on: NCI/ADR-RES
RPMI-8226 = tested on: RPMI-8226
OVCAR-3 = tested on: OVCAR-3
HCC 2998 = tested on: HCC 2998
MOLT-4 = tested on: MOLT-4
OVCAR-5 = tested on: OVCAR-5
SK-MEL-5 = tested on: SK-MEL-5
DU-145 = tested on: DU-145
MDA-MB-231 = tested on: MDA-MB-231
K562 = tested on: K562
SW-620 = tested on: SW-620
A549 = tested on: A549
SR = tested on: SR
KM12 = tested on: KM12
SN12C = tested on: SN12C
TK-10 = tested on: TK-10
M14 = tested on: M14
CCRF-CEM = tested on: CCRF-CEM
NCI-H522 = tested on: NCI-H522
HOP-92 = tested on: HOP-92

SMILES: O=C(N/C(=C\c1ccccc1)c1nc2ccccc2c(=O)o1)c1ccccc1
- GI50 (EKVX): 57.3 µM (inactive)
- GI50 (ACHN): 31 µM (inactive)
- GI50 (A498): > 100 µM (inactive)
- GI50 (SNB-75): 20.4 µM (inactive)
- GI50 (UO-31): > 41.6 µM (inactive)
- GI50 (HCT-15): 97.1 µM
- GI50 (NCI-H226): > 67.6 µM (inactive)
- GI50 (SF-539): > 53.7 µM (inactive)
- GI50 (COLO 205): > 100 µM (inactive)
- GI50 (SK-MEL-2): > 100 µM (inactive)
- GI50 (MCF7): 5.38 µM (inactive)
- GI50 (IGROV-1): 31.4 µM (inactive)
- GI50 (SNB-19): 27.3 µM (inactive)
- GI50 (SF-295): 36.2 µM (inactive)
- GI50 (BT-549): 20 µM (inactive)
- GI50 (LOX IMVI): 27.3 µM (inactive)
- GI50 (U-251): 33.8 µM (inactive)
- GI50 (SK-OV-3): 59.2 µM (inactive)
- GI50 (MDA-MB-435): 23.6 µM (inactive)
- GI50 (RXF 393): > 62.5 µM (inactive)
- GI50 (MDA-N): > 53 µM (inactive)
- GI50 (UACC-62): 30.1 µM (inactive)
- GI50 (HOP-62): > 52.5 µM (inactive)
- GI50 (NCI-H460): > 72.6 µM (inactive)
- GI50 (Malme-3M): > 100 µM (inactive)
- GI50 (OVCAR-4): > 88.5 µM (inactive)
- GI50 (SF-268): 23.8 µM (inactive)
- GI50 (SK-MEL-28): > 100 µM (inactive)
- GI50 (T47D): > 28.6 µM (inactive)
- GI50 (UACC-257): > 43.1 µM (inactive)
- GI50 (CAKI-1): > 78.3 µM (inactive)
- GI50 (OVCAR-8): > 57.7 µM (inactive)
- GI50 (786-0): 41.7 µM (inactive)
- GI50 (HT-29): > 100 µM (inactive)
- GI50 (HCT-116): > 55.3 µM (inactive)
- GI50 (Hs-578T): 22.1 µM (inactive)
- GI50 (NCI-H23): 46.3 µM (inactive)
- GI50 (HL-60): > 100 µM (inactive)
- GI50 (PC-3): > 100 µM (inactive)
- GI50 (NCI/ADR-RES): 33.4 µM (inactive)
- GI50 (RPMI-8226): > 100 µM (inactive)
- GI50 (OVCAR-3): > 70.5 µM (inactive)
- GI50 (HCC 2998): > 100 µM (inactive)
- GI50 (MOLT-4): > 100 µM (inactive)
- GI50 (OVCAR-5): > 88.9 µM (inactive)
- GI50 (SK-MEL-5): > 100 µM (inactive)
- GI50 (DU-145): > 76.7 µM (inactive)
- GI50 (MDA-MB-231): > 38.3 µM (inactive)
- GI50 (K562): > 100 µM (inactive)
- GI50 (SW-620): > 88.3 µM (inactive)
- GI50 (A549): > 100 µM (inactive)
- GI50 (SR): > 100 µM (inactive)
- GI50 (KM12): 7.96 µM (inactive)
- GI50 (SN12C): > 86.7 µM (inactive)
- GI50 (TK-10): > 100 µM (inactive)
- GI50 (M14): > 79.6 µM (inactive)
- GI50 (CCRF-CEM): > 100 µM (inactive)
- GI50 (NCI-H522): 38.9 µM (inactive)

SMILES: O=C1CC(=O)NC(NNS(=O)(=O)c2ccccc2)=N1
- GI50 (ACHN): > 100 µM (inactive)
- GI50 (SNB-75): > 100 µM (inactive)
- GI50 (UO-31): > 100 µM (inactive)
- GI50 (HCT-15): > 100 µM
- GI50 (NCI-H226): > 100 µM (inactive)
- GI50 (SF-539): > 100 µM (inactive)
- GI50 (COLO 205): > 100 µM (inactive)
- GI50 (SK-MEL-2): > 100 µM (inactive)
- GI50 (HOP-92): > 100 µM (inactive)
- GI50 (MCF7): > 100 µM (inactive)
- GI50 (IGROV-1): > 100 µM (inactive)
- GI50 (SNB-19): > 100 µM (inactive)
- GI50 (SF-295): > 100 µM (inactive)
- GI50 (BT-549): > 100 µM (inactive)
- GI50 (U-251): > 100 µM (inactive)
- GI50 (SK-OV-3): > 100 µM (inactive)
- GI50 (MDA-MB-435): > 100 µM (inactive)
- GI50 (RXF 393): > 100 µM (inactive)
- GI50 (MDA-N): > 100 µM (inactive)
- GI50 (UACC-62): > 100 µM (inactive)
- GI50 (HOP-62): > 100 µM (inactive)
- GI50 (NCI-H460): > 100 µM (inactive)
- GI50 (Malme-3M): > 100 µM (inactive)
- GI50 (OVCAR-4): > 100 µM (inactive)
- GI50 (SF-268): > 100 µM (inactive)
- GI50 (SK-MEL-28): > 100 µM (inactive)
- GI50 (T47D): > 100 µM (inactive)
- GI50 (UACC-257): > 100 µM (inactive)
- GI50 (CAKI-1): > 100 µM (inactive)
- GI50 (OVCAR-8): > 100 µM (inactive)
- GI50 (786-0): > 100 µM (inactive)
- GI50 (HT-29): > 100 µM (inactive)
- GI50 (HCT-116): > 100 µM (inactive)
- GI50 (Hs-578T): > 100 µM (inactive)
- GI50 (NCI-H23): > 100 µM (inactive)
- GI50 (PC-3): > 100 µM (inactive)
- GI50 (NCI/ADR-RES): > 100 µM (inactive)
- GI50 (RPMI-8226): > 100 µM (inactive)
- GI50 (OVCAR-3): > 100 µM (inactive)
- GI50 (HCC 2998): > 100 µM (inactive)
- GI50 (MOLT-4): > 100 µM (inactive)
- GI50 (OVCAR-5): > 100 µM (inactive)
- GI50 (SK-MEL-5): > 100 µM (inactive)
- GI50 (DU-145): > 100 µM (inactive)
- GI50 (MDA-MB-231): > 100 µM (inactive)
- GI50 (K562): > 100 µM (inactive)
- GI50 (SW-620): > 100 µM (inactive)
- GI50 (A549): > 100 µM (inactive)
- GI50 (SR): > 100 µM (inactive)
- GI50 (KM12): > 100 µM (inactive)
- GI50 (SN12C): > 100 µM (inactive)
- GI50 (TK-10): > 100 µM (inactive)
- GI50 (M14): > 100 µM (inactive)
- GI50 (CCRF-CEM): > 100 µM (inactive)
- GI50 (NCI-H522): > 100 µM (inactive)
